Data on one compound can be found in ChEMBL document CHEMBL4354881, “Optimization of Potent ATAD2 and CECR2 Bromodomain Inhibitors with an Atypical Binding Mode” (J Med Chem, 2020).

Data set [1] has as its target Chromatin remodeling regulator CECR2 (Homo sapiens, UniProt Q9BXF3). The data set is described as follows: Displacement of Alexa Fluor 647-labeled GSK tracer from FLAG-6His-Tev-fused CECR2 (424 to 543 residue) (unknown origin) measured after 15 mins by TR-FRET assay. Background: Time-resolved FRET reads energy transfer from a long-lived donor to a nearby acceptor.
For data set [2], the target named is Bromodomain adjacent to zinc finger domain protein 2A (Homo sapiens, UniProt Q9UIF9). The data set is described as follows: Binding affinity to human partial length BAZ2A (M1792 to L1905 residues) expressed in bacterial expression system by BROMOscan assay.
Chain of Bromodomain adjacent to zinc finger domain protein 2A (Q9UIF9 whole entry, the tested form may be a part): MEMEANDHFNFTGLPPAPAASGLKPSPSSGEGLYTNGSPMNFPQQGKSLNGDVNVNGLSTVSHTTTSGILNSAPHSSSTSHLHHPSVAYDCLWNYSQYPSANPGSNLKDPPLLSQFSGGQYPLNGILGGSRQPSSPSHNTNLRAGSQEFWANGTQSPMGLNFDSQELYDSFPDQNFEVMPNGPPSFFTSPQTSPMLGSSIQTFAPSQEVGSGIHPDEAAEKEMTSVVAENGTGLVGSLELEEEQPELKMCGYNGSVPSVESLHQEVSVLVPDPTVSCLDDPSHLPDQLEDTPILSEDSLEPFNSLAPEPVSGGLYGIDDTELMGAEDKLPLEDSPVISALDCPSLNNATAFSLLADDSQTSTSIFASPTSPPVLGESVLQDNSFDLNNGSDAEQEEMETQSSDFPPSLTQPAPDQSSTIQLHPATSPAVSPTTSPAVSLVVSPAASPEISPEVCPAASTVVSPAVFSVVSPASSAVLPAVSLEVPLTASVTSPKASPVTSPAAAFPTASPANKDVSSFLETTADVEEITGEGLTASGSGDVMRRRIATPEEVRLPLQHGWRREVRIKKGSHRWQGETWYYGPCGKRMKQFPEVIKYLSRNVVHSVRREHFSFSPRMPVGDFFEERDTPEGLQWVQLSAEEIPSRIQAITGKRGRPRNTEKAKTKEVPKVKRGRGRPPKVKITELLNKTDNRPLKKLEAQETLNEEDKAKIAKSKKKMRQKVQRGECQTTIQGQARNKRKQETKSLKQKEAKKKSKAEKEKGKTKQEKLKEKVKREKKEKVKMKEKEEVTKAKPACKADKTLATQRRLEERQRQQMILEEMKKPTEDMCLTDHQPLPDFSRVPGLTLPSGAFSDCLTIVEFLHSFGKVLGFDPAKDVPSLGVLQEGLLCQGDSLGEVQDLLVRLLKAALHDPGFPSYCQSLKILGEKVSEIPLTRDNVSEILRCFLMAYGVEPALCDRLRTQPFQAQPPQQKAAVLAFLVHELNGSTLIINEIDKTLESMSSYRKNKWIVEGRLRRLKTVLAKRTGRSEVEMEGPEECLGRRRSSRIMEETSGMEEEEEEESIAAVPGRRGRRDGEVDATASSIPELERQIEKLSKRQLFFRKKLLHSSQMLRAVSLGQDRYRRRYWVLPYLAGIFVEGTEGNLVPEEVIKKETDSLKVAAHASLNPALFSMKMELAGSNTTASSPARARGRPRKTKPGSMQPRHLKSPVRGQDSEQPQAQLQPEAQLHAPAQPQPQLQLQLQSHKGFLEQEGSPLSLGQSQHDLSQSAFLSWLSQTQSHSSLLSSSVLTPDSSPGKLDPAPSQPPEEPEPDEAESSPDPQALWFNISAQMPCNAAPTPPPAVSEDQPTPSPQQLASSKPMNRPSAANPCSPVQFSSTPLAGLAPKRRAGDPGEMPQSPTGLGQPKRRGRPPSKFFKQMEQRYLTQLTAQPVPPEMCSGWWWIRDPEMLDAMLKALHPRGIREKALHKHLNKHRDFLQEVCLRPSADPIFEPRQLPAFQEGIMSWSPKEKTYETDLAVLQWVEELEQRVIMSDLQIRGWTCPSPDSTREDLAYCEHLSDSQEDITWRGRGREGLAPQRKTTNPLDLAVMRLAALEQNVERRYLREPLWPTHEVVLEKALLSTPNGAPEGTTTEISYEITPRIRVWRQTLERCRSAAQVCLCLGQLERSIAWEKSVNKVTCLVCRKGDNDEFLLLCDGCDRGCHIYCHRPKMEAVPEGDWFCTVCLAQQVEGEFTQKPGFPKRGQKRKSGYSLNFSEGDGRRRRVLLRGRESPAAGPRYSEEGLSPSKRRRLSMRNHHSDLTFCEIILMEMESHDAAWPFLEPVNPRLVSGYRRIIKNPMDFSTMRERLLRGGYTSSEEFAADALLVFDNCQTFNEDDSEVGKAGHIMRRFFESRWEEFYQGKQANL
Data set [3] can be described thus: Permeability of the compound by artificial lipid membrane-based method. Type of data set: ADME. The note with it: not told; read-out: permeability.
The target in data set [4] is T1, Bromodomain-containing protein 1 (Homo sapiens, UniProt O95696).
T1 sequence (O95696 whole entry): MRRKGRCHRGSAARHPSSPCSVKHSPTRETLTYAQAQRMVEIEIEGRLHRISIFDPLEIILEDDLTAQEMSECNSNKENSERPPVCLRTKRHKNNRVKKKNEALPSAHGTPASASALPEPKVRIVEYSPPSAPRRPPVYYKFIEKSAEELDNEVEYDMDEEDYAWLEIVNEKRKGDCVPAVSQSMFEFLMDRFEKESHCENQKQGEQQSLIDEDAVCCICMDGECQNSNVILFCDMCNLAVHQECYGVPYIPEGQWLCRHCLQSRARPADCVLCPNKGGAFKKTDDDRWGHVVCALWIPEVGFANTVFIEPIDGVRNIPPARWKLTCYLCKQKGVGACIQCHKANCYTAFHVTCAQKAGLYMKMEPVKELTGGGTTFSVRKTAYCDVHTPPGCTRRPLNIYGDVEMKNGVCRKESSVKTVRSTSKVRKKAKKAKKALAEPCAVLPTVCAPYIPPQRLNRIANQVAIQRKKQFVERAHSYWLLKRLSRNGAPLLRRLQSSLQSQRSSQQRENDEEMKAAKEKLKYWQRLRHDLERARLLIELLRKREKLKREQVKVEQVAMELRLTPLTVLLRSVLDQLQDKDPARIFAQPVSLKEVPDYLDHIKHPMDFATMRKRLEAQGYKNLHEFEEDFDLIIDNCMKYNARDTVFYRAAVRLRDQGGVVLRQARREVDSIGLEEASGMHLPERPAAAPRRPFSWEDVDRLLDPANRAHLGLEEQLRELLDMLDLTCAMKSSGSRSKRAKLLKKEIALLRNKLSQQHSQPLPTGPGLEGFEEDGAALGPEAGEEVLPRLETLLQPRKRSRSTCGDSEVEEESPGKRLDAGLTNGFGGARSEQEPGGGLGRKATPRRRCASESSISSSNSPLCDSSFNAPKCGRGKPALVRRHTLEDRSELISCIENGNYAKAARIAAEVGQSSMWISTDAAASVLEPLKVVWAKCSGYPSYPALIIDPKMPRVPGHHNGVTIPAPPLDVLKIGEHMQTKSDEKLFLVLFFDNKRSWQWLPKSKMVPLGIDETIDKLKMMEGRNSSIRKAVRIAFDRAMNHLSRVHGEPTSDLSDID
Briefly: Binding affinity to human partial length BRD1 (E556 to A688 residues) expressed in bacterial expression system by BROMOscan assay.

Data set [5] has as its target T2, ATPase family AAA domain-containing protein 2 (Homo sapiens, UniProt Q6PL18).
T2 sequence (Q6PL18 whole entry): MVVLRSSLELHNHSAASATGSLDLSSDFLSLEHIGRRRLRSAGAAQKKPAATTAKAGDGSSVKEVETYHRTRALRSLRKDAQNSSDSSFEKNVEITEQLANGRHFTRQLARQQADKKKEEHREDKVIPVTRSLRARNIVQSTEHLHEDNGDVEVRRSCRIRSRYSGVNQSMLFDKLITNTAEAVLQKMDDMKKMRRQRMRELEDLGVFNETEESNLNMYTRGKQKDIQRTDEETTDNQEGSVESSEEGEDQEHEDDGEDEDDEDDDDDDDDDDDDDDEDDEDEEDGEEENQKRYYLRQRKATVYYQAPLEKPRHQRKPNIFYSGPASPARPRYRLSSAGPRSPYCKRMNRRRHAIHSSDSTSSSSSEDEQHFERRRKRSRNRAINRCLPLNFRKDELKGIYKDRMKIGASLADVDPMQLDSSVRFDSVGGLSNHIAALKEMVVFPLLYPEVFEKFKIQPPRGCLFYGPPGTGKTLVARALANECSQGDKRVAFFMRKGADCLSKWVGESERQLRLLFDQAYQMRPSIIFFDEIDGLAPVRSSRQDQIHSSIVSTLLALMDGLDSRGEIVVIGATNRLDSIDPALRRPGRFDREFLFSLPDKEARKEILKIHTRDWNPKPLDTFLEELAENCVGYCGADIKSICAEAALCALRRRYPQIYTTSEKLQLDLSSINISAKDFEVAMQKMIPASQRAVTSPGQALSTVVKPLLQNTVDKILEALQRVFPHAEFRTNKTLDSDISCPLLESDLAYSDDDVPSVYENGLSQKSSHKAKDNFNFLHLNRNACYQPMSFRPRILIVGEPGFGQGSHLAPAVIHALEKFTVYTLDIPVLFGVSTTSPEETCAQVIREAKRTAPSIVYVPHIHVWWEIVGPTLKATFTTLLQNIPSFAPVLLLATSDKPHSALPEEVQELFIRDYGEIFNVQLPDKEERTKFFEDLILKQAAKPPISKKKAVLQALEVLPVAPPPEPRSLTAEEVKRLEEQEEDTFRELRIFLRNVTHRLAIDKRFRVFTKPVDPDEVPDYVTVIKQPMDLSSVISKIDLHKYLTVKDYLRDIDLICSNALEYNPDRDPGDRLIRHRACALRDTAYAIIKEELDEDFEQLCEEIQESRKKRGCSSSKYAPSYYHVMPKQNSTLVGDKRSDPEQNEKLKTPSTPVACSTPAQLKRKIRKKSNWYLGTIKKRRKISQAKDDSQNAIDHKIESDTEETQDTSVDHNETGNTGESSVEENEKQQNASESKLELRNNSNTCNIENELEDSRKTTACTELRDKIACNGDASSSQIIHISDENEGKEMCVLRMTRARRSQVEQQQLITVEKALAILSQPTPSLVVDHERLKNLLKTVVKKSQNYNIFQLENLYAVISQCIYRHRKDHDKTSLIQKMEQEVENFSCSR
Briefly: Binding affinity to human partial length ATAD2A (Q981 to R1108 residues) expressed in bacterial expression system by BROMOscan assay.

The target of data set [6] is Bromodomain-containing protein 4 (Homo sapiens, UniProt O60885, Y390A). Briefly: Displacement of Alexa Fluor 647-labeled ligand from BRD4 BD1 Y390A mutant (1 to 477 residue) (unknown origin) measured after 30 mins by TR-FRET assay.
The target of data set [7] is Histone acetyltransferase KAT2A (Homo sapiens, UniProt Q92830). The data set is described as follows: Binding affinity to human partial length GCN5L2 (E726 to K837 residues) expressed in bacterial expression system by BROMOscan assay.
Chain of Histone acetyltransferase KAT2A (Q92830 whole entry, the tested form may be a part): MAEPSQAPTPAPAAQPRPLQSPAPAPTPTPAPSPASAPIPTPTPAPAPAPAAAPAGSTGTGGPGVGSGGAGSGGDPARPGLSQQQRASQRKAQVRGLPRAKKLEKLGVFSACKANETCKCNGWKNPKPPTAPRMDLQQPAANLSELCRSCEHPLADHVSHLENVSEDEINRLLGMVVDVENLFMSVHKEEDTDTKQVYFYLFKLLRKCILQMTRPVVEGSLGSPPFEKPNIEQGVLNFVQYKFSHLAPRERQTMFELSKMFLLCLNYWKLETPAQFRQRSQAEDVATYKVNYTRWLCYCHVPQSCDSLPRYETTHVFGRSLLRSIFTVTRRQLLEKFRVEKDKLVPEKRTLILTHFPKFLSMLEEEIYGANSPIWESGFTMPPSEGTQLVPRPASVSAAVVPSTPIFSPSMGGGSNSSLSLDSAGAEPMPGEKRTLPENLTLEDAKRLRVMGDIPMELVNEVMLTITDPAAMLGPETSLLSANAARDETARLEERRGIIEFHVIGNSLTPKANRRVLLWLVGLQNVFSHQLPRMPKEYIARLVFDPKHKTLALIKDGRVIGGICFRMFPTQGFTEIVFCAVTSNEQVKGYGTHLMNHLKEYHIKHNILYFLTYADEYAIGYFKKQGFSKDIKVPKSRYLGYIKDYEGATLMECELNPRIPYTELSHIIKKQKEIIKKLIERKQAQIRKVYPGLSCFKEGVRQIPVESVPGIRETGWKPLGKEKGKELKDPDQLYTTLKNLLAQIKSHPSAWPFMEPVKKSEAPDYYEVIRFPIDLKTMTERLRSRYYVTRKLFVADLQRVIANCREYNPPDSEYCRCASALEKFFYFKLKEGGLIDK
The target of data set [8] is Bromodomain-containing protein 4 (Homo sapiens, UniProt O60885). Briefly: Displacement of Alexa Fluor 647-labeled ligand from BRD4 BD2 (unknown origin) measured after 30 mins by TR-FRET assay.

The IC50 is the point on the concentration scale where inhibition reaches its midpoint. Low values mean greater potency, high ones weaker potency. A word on the Kd: it is the constant that tells how readily two partners part at equilibrium. A high value points to lower affinity.

Chain of Chromatin remodeling regulator CECR2 (Q9BXF3 whole entry, the tested form may be a part): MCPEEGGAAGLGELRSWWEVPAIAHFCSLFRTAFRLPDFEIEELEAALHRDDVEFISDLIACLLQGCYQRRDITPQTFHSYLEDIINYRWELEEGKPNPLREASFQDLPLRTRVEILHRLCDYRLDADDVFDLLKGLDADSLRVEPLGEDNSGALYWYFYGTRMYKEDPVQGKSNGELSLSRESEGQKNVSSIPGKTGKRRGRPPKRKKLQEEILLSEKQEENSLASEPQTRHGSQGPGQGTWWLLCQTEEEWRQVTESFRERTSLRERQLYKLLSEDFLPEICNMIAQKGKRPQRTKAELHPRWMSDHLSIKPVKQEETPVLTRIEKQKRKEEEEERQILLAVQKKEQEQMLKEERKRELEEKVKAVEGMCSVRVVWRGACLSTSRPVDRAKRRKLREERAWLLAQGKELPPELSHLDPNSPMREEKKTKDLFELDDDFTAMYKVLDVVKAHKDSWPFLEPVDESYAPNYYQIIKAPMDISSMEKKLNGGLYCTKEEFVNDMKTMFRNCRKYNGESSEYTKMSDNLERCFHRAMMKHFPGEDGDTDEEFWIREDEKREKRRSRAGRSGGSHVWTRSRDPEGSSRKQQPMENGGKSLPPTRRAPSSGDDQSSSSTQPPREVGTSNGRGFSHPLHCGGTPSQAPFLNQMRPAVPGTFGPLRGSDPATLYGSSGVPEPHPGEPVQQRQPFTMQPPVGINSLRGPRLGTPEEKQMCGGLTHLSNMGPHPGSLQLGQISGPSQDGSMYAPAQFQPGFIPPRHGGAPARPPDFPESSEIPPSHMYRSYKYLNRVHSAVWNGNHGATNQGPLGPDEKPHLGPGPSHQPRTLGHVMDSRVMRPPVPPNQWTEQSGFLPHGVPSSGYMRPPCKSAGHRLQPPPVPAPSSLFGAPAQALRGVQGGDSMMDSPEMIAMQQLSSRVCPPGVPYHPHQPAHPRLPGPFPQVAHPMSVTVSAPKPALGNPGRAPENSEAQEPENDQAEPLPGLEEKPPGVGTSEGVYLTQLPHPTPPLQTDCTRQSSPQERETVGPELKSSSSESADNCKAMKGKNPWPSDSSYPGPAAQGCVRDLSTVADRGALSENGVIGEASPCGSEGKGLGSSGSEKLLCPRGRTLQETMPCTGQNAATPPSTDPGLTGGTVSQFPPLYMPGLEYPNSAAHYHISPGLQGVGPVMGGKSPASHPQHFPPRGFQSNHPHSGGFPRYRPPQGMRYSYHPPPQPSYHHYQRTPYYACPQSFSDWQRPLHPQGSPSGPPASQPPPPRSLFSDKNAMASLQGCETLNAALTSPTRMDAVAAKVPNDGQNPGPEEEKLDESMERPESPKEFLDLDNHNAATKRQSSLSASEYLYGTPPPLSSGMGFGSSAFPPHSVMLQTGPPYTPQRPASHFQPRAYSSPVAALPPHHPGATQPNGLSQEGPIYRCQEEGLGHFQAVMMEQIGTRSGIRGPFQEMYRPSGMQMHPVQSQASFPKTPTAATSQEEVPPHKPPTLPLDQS

`C[C@H]1CCN(S(=O)(=O)c2cc(NC(=O)CN3C(=O)N[C@@](C)(C4CC4)C3=O)ccc2Br)C1`: the IC50 in data set [1] was 316 nM; in data set [6] it was over 50100 nM; in data set [8], 12600 nM. For the same compound, the Kd was 15.8 nM in data set [2], 126 nM in data set [4], 10 nM in data set [5] and 251 nM in data set [7]. In addition, the Papp in data set [3] was determined as 9.9 ×10⁻⁶ cm/s.
